Measurements published in US10940156B2, “Neuroactive steroids, compositions, and uses thereof” (Sage Therapeutics, Inc., priority 2016, dated 2021).

Tests used:
[1] = 14-day rat toxicology study; type: in vivo; conditions: for NOAEL at 14 days: in vivo, 14-day daily administration, solution in Labrasol
Protocol: (§1) The compound was assessed in 14-day rat and dog toxicology studies with daily administration of Compound 9 as a solution in HPBCD in dogs and Labrasol® in rats.
(§2) The NOAEL in rats was 3 mg/kg (females) and 22.5 mg/kg (males), and was 2.5 mg/kg in dogs. […] A single observation of mortality occurred in one female rat at the high dose in a toxicokinetic study which was suspected to have been related to exaggerated pharmacology.

rats = assay: 14-day rat toxicology study; type: in vivo
Protocol: as §1, §2

[2] = 14-day dog toxicology study; type: in vivo; conditions: dog, in vivo; dogs; 14-day daily administration, solution in HPBCD
Protocol: as §1, §2

dogs = assay: 14-day dog toxicology study; type: in vivo
Protocol: as §1, §2

[3] = tested on: seizures arising from chemoconvulsants, proconvulsant stimuli, and genetic predisposition; assay: preclinical anticonvulsant models; type: in vivo, rodents; conditions: oral
Protocol: FIGS. 3A and 3B depict exemplary preclinical anticonvulsant efficacy in rodents.
as §1

[4] = toxicology and safety pharmacology studies across species; type: in vivo
Protocol: as §1
Expected risks are those identified during the toxicology and safety pharmacology studies for Compound 9 and clinical study Example 2. […] This will be monitored in the clinical study using two scales, one designed to monitor “sleepiness” (Stanford Sleepiness Scale) and one to monitor deeper sedation (Modified Observer's Assessment of Alertness/Sedation).

healthy volunteers [5] = assay: Phase I single ascending dose (SAD) study: MOAA/S sedation and adverse events; type: in vivo, human
Source text: Example 2. A Phase I, Double-Blind, Placebo-Controlled, Single Ascending Dose Study to Determine the Maximum Tolerated Dose (MTD), Pharmacokinetics and Pharmacodynamics of Compound 9 Oral Solution in Healthy Volunteers and the Safety, Tolerability, and Pharmacokinetics of Compound 9 in Subjects with Essential Tremor
This four-part study will assess the effects of a single dose of Compound 9. The initial part of the study is a double-blind, placebo-controlled single ascending dose (SAD) design in healthy, adult volunteers with the objective of identifying the maximum tolerated dose (MTD) and pharmacokinetic (PK) profiles of Compound 9 Oral Solution. Escalation to the next dose will be undertaken only after safety and PK data have been reviewed by the Safety Review Committee (SRC) and agreement reached that it is safe to increase the dose. The SRC will not receive any unblinded PK data unless it is agreed upon by the SRC to unblind a subject and/or cohort based on the completed safety review.
In each of the SAD cohorts, subjects will be randomly assigned to receive either Compound 9 (six subjects) or placebo (two subjects) in a blinded manner. Cohort 1 will receive Dose 1, Cohort 2 will receive Dose 2, and so on. With the exception of the Food cohort, study drug will be administered in a fasting state (no food and only water for the previous 12 hours) and a standard Phase 1 unit diet will be administered beginning approximately four to five hours after dosing. […]
The MOAA/S allows exploration of deeper sedation states than the SSS. […] If a MOAA/S score of 3 or less (≤3) is observed, confirm the score by waiting approximately 10 minutes and readministering the MOAA/S assessment. […]

healthy volunteers [6] = assay: Phase I multiple ascending dose (MAD) study: MOAA/S sedation; type: in vivo, human
Source text: Example 3. Phase I, Double-Blind, Placebo-Controlled, Multiple Ascending Dose Study to Determine Safety, Tolerability, Pharmacokinetics and Pharmacodynamics of Compound 9 Oral Solution in Healthy Volunteers
This study comprises a double blind, placebo-controlled multiple ascending dose (MAD) study followed by an open-label drug-drug interaction study (DDI) without placebo in healthy, adult volunteers. Four cohorts of 12 subjects each will be recruited for a total of 48 subjects. Subjects in Cohorts 1, 2, and 3 will participate in the multiple-ascending-dose (MAD) part of the study, and subjects in Cohort 4 will participate in the drug-drug-interaction (DDI) part of the study.
The objective of the MAD part of the study is to determine the safety, tolerability, pharmacokinetics (PK), and pharmacodynamic (PD) profile of seven days of dosing with Compound 9 Oral Solution (henceforth referred to as Compound 9).
The MOAA/S allows exploration of deeper sedation states than the SSS. All time points are relative to the time of dosing. If the planned time point is between the hours of 22:00 h and 08:00 h each day or if the subject has been discharged before the +72 hour time point, the assessment need not be conducted at that time point. If a subject is difficult to awaken, an additional MOAA/S assessment may be performed at the discretion of the PI. Any MOAA score of 3 or less must be repeated. […]

[7] = male and female rats, non-adverse, reversible, without microscopic correlates

## C[C@@]1(O)CC[C@H]2[C@H](CC[C@@H]3[C@@H]2CC[C@]2(C)[C@@H](C(=O)Cn4cc(C#N)cn4)CC[C@@H]32)C1 [Compound 9]
[1]; plasma, 22.5 mg/kg, male rat 14-day toxicology, read-out: AUC at lowest NOAEL exposure in toxicology studies
  AUC at 14 day: 5050 ng·h/mL
[1]; rat, female rats
  NOAEL at 14 days: 3 mg/kg
[1]; rat, male rats
  NOAEL at 14 days: 22.5 mg/kg
[1]; rat, plasma, 3 mg/kg, female rats, Day 14, read-out: estimated human Cmax based on the lowest NOAEL Day 14 Cmax in female rats
  Cmax: 400 ng/mL
rats; female rat, high dose, toxicokinetic study, suspected related to exaggerated pharmacology
  mortality: one
rats; high dose male and female rats
  increases in AST/ALT: < 2 fold
  microscopic liver finding: increased incidence of minimal hepatocellular vacuolation
rats; [7]
  APTT: slight prolongation of APTT
  urine pH: slight increase in urine pH
rats; rats
  adverse effects in main toxicology study: no adverse effects
[2]
  NOAEL at 14 days: 2.5 mg/kg
dogs
  adverse effects in main toxicology study: no adverse effects
  core body temperature: transient decreases in core body temperature
  heart rate: transient increases in heart rate
dogs; well-documented vehicle effect
  renal microscopic finding: minimal renal tubular vacuolation
[3]
  anticonvulsant activity: orally active in preclinical anticonvulsant models, and suppressed seizures
[4]; across species, studies and doses
  most common drug-related effect: dose-related sedation
[4]; nonclinical studies
  manifestations of exaggerated pharmacology: sedation and ataxia
Healthy volunteers [5]; 55 mg single dose, stopping criteria not met
  subjects with MOAA/S ≤2: 2 subjects
Healthy volunteers [5]; 66 mg single dose, stopping criteria met
  subjects with MOAA/S ≤2: 2 subjects
Healthy volunteers [5]; five SAD cohorts dosed, oral solution, study ongoing
  adverse events possibly or probably related to the study drug: mild drowsiness, mild confusion, somnolence, headache, orthostatic heart rate increase, aloofness, anxiety, sore throat and mild abdominal discomfort
Healthy volunteers [6]; 35 mg group, all at 1 hour post-dose
  subjects with MOAA/S scores of 1 or 2 (deep sedation): two
Healthy volunteers [6]; by 4 hours post-dose
  mean MOAA/S: approached baseline values
